Measurements taken from patent US20240091292A1, “METHODS FOR TREATMENT OF HUMAN CANCERS USING CANNABIS COMPOSITIONS” (Apollon Formularies PLC, priority 2021, published 2024).
pEC50, pIC50: −log10 of the molar value.

Columns and labels:
Assay type in all cases: cell-based
BT-474 = assay: 3D Cell Proliferation Screen, BT-474; details: Homo sapiens, 120 h; BT-474 breast spheroids, 5 days; relative to T0; positive control
Experimental: (§1) Experimental Methods: 3D Cell Proliferation Assay
(§2) Cells were seeded at 1000 cells/well in media in 384-well Corning® Spheroid microplates. The microplates were incubated at 37 C in 5% CO2 incubator to allow for spheroid formation.
(§3) Aliquots of each sample were vortexed and centrifuged at 3,000 rpm (800 g) for 5 minutes at room temperature. Supernatants (500-fold stocks) were stored under sterile conditions at 4 C.
(§4) On the day of the assay, a 9-point dose-response of each 500-fold stock was prepared and added to the spheroid plates to provide final assay concentrations ranging from 1e-04 to 1-fold, in 0.2% DMSO. Final assay conditions for each sample are shown on Table 1.
(§5) Assay plates were incubated at 37 C in an atmosphere containing 5% CO2 for 5 days. […] Cell viability was determined at 5 days post-compound addition. Briefly, 3D-CellTiter Glow™ reagent (Promega) was added to assay plates per the manufacturer's recommendations. Plates were shaken until spheroids were lysed and luminescence was read at room temperature.
(§6) Cell proliferation end point was analyzed as Percent of Control (POC) using the following formula: […]
(§7) EC50, IC50 and GI50 values were calculated using nonlinear regression to fit data to a sigmoidal 4-point, 4-parameter log-logistic dose response model: […]

PC-3 = assay: 3D Cell Proliferation Screen, PC-3; details: Homo sapiens, 120 h, PC-3 prostate spheroids, 5 days, positive control
Experimental: as §1, §2, §3, §4, §5, §6, §7

A-549 = assay: 3D Cell Proliferation Screen, A-549; details: Homo sapiens, A549, 120 h, A-549 lung spheroids, 5 days, positive control
Experimental: as §1, §2, §3, §4, §5, §6, §7

T24 = assay: 3D Cell Proliferation Screen, T24; details: Homo sapiens, T-24, 120 h, T24 bladder spheroids, 5 days, positive control
Experimental: as §1, §2, §3, §4, §5, §6
(§8) A relative cell count EC50 is the concentration of the test compound that produces a response half-way between the maximum and baseline. Relative cell count IC50 is the concentration of the test compound that produces 50% of the cell proliferation inhibitory response or 50% cytotoxicity level. GI50 is the concentration of the test compound that produces 50% reduction in proliferation of cancer cells relative to T0. The output of each biomarker is fold-increase over vehicle control background normalized to the relative cell count in each well.
(§9) EC50, IC50 and GI50 values were calculated using nonlinear regression to fit data to a sigmoidal 4-point, 4-parameter log-logistic dose response model:
(§10) Curve-fitting and EC50 calculations were performed using the R statistical software package with R's drc library.

HT-29 = assay: 3D Cell Proliferation Screen, HT-29; details: Homo sapiens, 120 h, HT-29 colon spheroids, 5 days, positive control
Experimental: as §1, §2, §3, §4, §5, §6, §8, §9, §10

NCI-H460 = assay: 3D Cell Proliferation Screen, NCI-H460; details: Homo sapiens, 120 h; NCI-H460 lung spheroids, 5 days; relative to T0; positive control
Experimental: as §1, §2, §3, §4, §5, §6, §7

T-47D = assay: 3D Cell Proliferation Screen, T-47D; details: Homo sapiens, T47D, 120 h, T-47D breast spheroids, 5 days, positive control
Experimental: as §1, §2, §3, §4, §5, §6, §8, §9, §10

22Rv-1 = assay: 3D Cell Proliferation Screen, 22Rv-1; details: Homo sapiens, 22Rv1, 120 h; 22Rv-1 prostate spheroids, 5 days; relative to T0; positive control
Experimental: as §1, §2, §3, §4, §5, §6, §7

How did the GI50 (BT-474) turn out when `CN[C@@H]1C[C@H]2O[C@@](C)([C@@H]1OC)n1c3ccccc3c3c4c(c5c6ccccc6n2c5c31)C(=O)NC4` [Staurosporine] was run?
Its GI50 is 3 nM.

And the pIC50 (PC-3)?
The pIC50 was 8.40.

And the GI50 (PC-3; relative to T0)?
Its GI50 is 1 nM.

What about the pEC50 (A-549) of the same molecule?
Its pEC50 is 7.77.

And the GI50 (A-549; relative to T0)?
The GI50 was 11 nM.

What about the pEC50 (T24) of the same molecule?
The pEC50 was 7.89.

And the pIC50 (T24)?
The pIC50 was 7.89.

What about the GI50 (T24; relative to T0) of the same molecule?
Its GI50 is 1 nM.

What about the pEC50 (HT-29) of the same molecule?
The pEC50 was 8.05.

What about the pIC50 (HT-29) of the same molecule?
Its pIC50 is 8.05.

And the GI50 (HT-29; relative to T0)?
Its GI50 is 7 nM.

And the GI50 (NCI-H460)?
Its GI50 is 17 nM.

What about the pEC50 (T-47D) of the same molecule?
Its pEC50 is 7.00.

What about the pIC50 (T-47D) of the same molecule?
Its pIC50 is 7.00.

And the GI50 (T-47D; relative to T0)?
The GI50 was 38 nM.

And the GI50 (22Rv-1)?
The GI50 was 13 nM.
